Measurements taken from patent publication US11623919B2, “Heterocyclic P2X7 antagonists” (AXXAM S.P.A., priority 2017, dated 2023).

Columns and labels:
Test in all cases: Screen Quest Fluo-8 No Wash Calcium Assay (Bz-ATP evoked Ca2+ influx, FLIPR)
Format in all cases: cell-based
P2X7 receptor [1] = molecular target: T1, P2X7 receptor (Mus musculus, UniProt Q9Z1M0); details: mP2X7; HEK-293 cells stably transfected with P2X7 receptor, Bz-ATP at EC80, Fluo-8 NW; potency ranges A-D
T1 construct: mP2X7 (IC50; nM); other: mP2X7; HEK-293 cells stably transfected with P2X7 receptor, Bz-ATP at EC80, Fluo-8 NW; potency
T1 sequence (Q9Z1M0 1-595): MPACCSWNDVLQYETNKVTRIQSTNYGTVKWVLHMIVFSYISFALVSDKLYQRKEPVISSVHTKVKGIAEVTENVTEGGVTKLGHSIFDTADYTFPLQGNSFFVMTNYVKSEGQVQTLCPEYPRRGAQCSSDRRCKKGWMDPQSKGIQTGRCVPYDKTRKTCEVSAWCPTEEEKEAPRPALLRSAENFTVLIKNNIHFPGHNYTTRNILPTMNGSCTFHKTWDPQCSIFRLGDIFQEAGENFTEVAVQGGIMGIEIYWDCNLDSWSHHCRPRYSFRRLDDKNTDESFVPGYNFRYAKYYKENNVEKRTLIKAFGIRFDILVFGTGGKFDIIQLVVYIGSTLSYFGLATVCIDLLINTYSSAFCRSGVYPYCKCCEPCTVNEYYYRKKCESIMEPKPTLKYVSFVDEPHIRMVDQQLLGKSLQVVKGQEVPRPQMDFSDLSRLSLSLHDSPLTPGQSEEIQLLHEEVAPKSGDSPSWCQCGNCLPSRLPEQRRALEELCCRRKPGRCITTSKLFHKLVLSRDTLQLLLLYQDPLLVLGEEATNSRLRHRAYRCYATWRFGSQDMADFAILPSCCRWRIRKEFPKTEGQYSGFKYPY
Summary of the method: (§1)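 Compounds were added to Fluo-8-loaded P2X7-transfected HEK-293 cells 5 min before an EC80 Bz-ATP challenge, and Ca2+ influx was then recorded for 3 min. Buffer held 0.3 mM Ca2+ and no Mg2+. Inhibition was normalised to A438079, giving IC50 values.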

P2X7 receptor [2] = molecular target: T2, P2X7 receptor (Rattus norvegicus, UniProt Q64663); details: rP2X7; HEK-293 cells stably transfected with P2X7 receptor, Bz-ATP at EC80, Fluo-8 NW; potency ranges A-D
T2 construct: rP2X7 (IC50; nM); other: rP2X7; HEK-293 cells stably transfected with P2X7 receptor, Bz-ATP at EC80, Fluo-8 NW; potency
T2 sequence (Q64663 1-595): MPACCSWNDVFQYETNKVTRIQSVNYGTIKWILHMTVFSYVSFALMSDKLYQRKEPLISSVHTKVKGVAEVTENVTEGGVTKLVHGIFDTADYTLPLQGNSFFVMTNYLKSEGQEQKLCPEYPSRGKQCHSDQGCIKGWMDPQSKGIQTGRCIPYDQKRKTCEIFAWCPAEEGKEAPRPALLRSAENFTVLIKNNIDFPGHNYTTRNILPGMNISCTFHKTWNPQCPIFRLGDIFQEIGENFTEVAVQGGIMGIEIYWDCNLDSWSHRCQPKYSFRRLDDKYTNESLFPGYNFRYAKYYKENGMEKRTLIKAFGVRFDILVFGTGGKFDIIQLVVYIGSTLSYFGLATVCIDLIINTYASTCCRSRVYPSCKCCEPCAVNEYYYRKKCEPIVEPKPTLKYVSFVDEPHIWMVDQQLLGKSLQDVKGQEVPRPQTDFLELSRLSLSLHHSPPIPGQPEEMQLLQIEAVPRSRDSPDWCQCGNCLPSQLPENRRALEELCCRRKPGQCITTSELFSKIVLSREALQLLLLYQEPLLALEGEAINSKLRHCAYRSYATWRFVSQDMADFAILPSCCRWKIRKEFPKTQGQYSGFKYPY
Summary of the method: as §1

P2X7 receptor [3] = molecular target: T3, P2X7 receptor (Homo sapiens, UniProt Q99572); set-up: hP2X7 (IC50; nM); other: hP2X7; HEK-293 cells stably transfected with P2X7 receptor, Bz-ATP at EC80, Fluo-8 NW; potency; details: hP2X7; HEK-293 cells stably transfected with P2X7 receptor, Bz-ATP at EC80, Fluo-8 NW; potency ranges A-D
T3 sequence (Q99572 1-595): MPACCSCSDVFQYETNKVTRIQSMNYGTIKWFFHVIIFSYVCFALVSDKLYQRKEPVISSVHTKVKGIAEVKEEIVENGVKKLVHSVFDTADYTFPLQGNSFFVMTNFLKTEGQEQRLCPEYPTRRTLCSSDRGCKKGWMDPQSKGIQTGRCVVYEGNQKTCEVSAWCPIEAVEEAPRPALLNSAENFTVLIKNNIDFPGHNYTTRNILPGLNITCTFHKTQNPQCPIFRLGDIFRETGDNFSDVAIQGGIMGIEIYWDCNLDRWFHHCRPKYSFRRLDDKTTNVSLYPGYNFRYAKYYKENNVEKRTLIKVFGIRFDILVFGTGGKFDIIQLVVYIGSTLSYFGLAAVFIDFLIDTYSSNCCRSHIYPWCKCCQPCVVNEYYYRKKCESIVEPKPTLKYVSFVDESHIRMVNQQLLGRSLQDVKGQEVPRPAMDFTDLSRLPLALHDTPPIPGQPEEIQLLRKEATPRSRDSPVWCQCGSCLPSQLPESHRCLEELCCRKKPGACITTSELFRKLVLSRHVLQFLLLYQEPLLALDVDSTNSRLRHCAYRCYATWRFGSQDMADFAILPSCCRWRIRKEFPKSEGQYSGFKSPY
Summary of the method: as §1

Row | Compound | IC50 (P2X7 receptor [1]) [nM] | IC50 (P2X7 receptor [2]) [nM] | IC50 (P2X7 receptor [3]) [nM]
1 | O=c1onc(Cc2c(F)cccc2Cl)n1CC1CCC(C(F)(F)F)CC1 (stereo not drawn) [Example 184, 3-[(2-chloro-6-fluorophenyl)methyl]-4-{[4-(trifluoromethyl)cyclohexyl]methyl}-1,2,4-oxadiazol-5(4H)-one] | < 200 | < 200 | < 200
2 | O=c1onc(Cc2ccccc2F)n1CC1CCC(F)(F)CC1 [Example 150, 4-[(4,4-difluorocyclohexyl)methyl]-3-[(2-fluorophenyl)methyl]-4,5-dihydro-1,2,4-oxadiazol-5-one] | 200 to 1000 | < 200 | 200 to 1000
3 | O=c1onc(CN2CCOc3ccccc32)n1Cc1c(F)cccc1Cl [Example 229, 4-[(2-chloro-6-fluorophenyl)methyl]-3-(3,4-dihydro-2H-1,4-benzoxazin-4-ylmethyl)-4,5-dihydro-1,2,4-oxadiazol-5-one] | 1000 to 10000 | 1000 to 10000 | 1000 to 10000
4 | Cc1noc(C)c1Cc1noc(=O)n1Cc1c(F)cccc1Cl [Example 209, 4-[(2-chloro-6-fluorophenyl)methyl]-3-[(dimethyl-1,2-oxazol-4-yl)methyl]-4,5-dihydro-1,2,4-oxadiazol-5-one] | > 10000 | > 10000 | 1000 to 10000
5 | O=c1onc(Cc2c(F)cccc2Cl)n1Cc1cccc2ccccc12 [Example 29, 3-[(2-chloro-6-fluorophenyl)methyl]-4-(naphthalen-1-ylmethyl)-4,5-dihydro-1,2,4-oxadiazol-5-one] | 1000 to 10000 | > 10000 | 1000 to 10000
6 | O=c1onc(Cc2c(F)cccc2Cl)n1CCCN1CCCCC1 [Example 180, 3-[(2-chloro-6-fluorophenyl)methyl]-4-[3-(piperidin-1-yl)propyl]-4,5-dihydro-1,2,4-oxadiazol-5-one] | > 10000 | > 10000 | > 10000
7 | O=c1onc(Cc2ccccc2)n1Cc1ccc(F)cc1 [Example 108, 3-benzyl-4-[(4-fluorophenyl)methyl]-4,5-dihydro-1,2,4-oxadiazol-5-one] | 1000 to 10000 | 1000 to 10000 | 1000 to 10000
8 | O=c1onc(C(O)c2ccc(F)cc2F)n1Cc1c(F)cccc1Cl (stereo not drawn) [Example 137, 4-[(2-chloro-6-fluorophenyl)methyl]-3-[(2,4-dffluorophenyl)(hydroxy)methyl]-4,5-dihydro-1,2,4-oxadiazol-5-one] | 1000 to 10000 | 1000 to 10000 | 1000 to 10000
9 | O=c1onc(Cc2c(F)cccc2Cl)n1Cc1cnco1 [Example 40, 3-[(2-chloro-6-fluorophenyl)methyl]-4-(1,3-oxazol-5-ylmethyl)-4,5-dihydro-1,2,4-oxadiazol-5-one] | > 10000 | > 10000 | > 10000
10 | O=c1onc(CN2CCCCC2)n1Cc1ccc(F)cc1 [Example 240, 4-[(4-fluorophenyl)methyl]-3-(piperidin-1-ylmethyl)-4,5-dihydro-1,2,4-oxadiazol-5-one] | > 10000 | 1000 to 10000 | > 10000
11 | O=c1onc(Cc2ccccc2)n1CC1CCC(F)(F)CC1 [Example 161, 3-benzyl-4-[(4,4-difluorocyclohexyl)methyl]-4,5-dihydro-1,2,4-oxadiazol-5-one] | 1000 to 10000 | 200 to 1000 | 200 to 1000
12 | Cc1noc(Cn2c(CC3CCC(F)(F)CC3)noc2=O)n1 [Example 197, 3-[(4,4-difluorocyclohexyl)methyl]-4-[(3-methyl-1,2,4-oxadiazol-5-yl)methyl]-1,2,4-oxadiazol-5(4H)-one] | > 10000 | > 10000 | > 10000
13 | O=c1onc(CC2CCC(F)(F)CC2)n1Cc1ccc(C(F)(F)F)nc1 [Example 189, 3-[(4,4-difluorocyclohexyl)methyl]-4-{[6-(trifluoromethyl)pyridin-3-yl]methyl}-4,5-dihydro-1,2,4-oxadiazol-5-one] | > 10000 | > 10000 | > 10000
14 | O=c1onc(Cc2c(F)cccc2Cl)n1Cc1nccs1 [Example 34, 3-[(2-chloro-6-fluorophenyl)methyl]-4-(1,3-thiazol-2-ylmethyl)-4,5-dihydro-1,2,4-oxadiazol-5-one] | > 10000 | > 10000 | > 10000
15 | O=c1onc(C(O)c2cccc(Cl)c2Cl)n1Cc1c(F)cccc1Cl (stereo not drawn) [Example 138, 4-[(2-chloro-6-fluorophenyl)methyl]-3-[(2,3-dichlorophenyl)(hydroxy)methyl]-4,5-dihydro-1,2,4-oxadiazol-5-one] | 1000 to 10000 | 1000 to 10000 | 1000 to 10000
16 | O=c1onc(Cc2c(F)cccc2Cl)n1Cc1cccc(C(F)(F)F)c1Cl [Example 58, 4-{[2-chloro-3-(trifluoromethyl)phenyl]methyl}-3-[(2-chloro-6-fluorophenyl)methyl]-4,5-dihydro-1,2,4-oxadiazol-5-one] | 1000 to 10000 | 1000 to 10000 | 1000 to 10000
17 | O=c1onc(CC2CCC(F)(F)CC2)n1Cc1cccc(C(F)(F)F)c1Cl [Example 167, 4-{[2-chloro-3-(trifluoromethyl)phenyl]methyl}-3-[(4,4-dffluorocyclohexyl)methyl]-4,5-dihydro-1,2,4-oxadiazol-5-one] | 1000 to 10000 | 1000 to 10000 | > 10000
18 | O=c1onc(Cc2c(F)cccc2Cl)n1Cc1ccncc1 [Example 43, 3-[(2-chloro-6-fluorophenyl)methyl]-4-(pyridin-4-ylmethyl)-4,5-dihydro-1,2,4-oxadiazol-5-one] | > 10000 | > 10000 | > 10000
19 | O=c1onc(Cc2ccc(F)cc2F)n1CC1CCC(F)(F)CC1 [Example 153, 4-[(4,4-difluorocyclohexyl)methyl]-3-[(2,4-difluorophenyl)methyl]-4,5-dihydro-1,2,4-oxadiazol-5-one] | 200 to 1000 | < 200 | < 200
20 | O=c1onc(Cc2ccc(Cl)cc2Cl)n1CC1CCC(F)(F)CC1 [Example 159, 3-[(2,4-dichlorophenyl)methyl]-4-[(4,4-difluorocyclohexyl)methyl]-4,5-dihydro-1,2,4-oxadiazol-5-one] | 200 to 1000 | < 200 | < 200
21 | Cc1nnc(Cn2c(Cc3c(F)cccc3Cl)noc2=O)o1 [Example 41, 3-[(2-chloro-6-fluorophenyl)methyl]-4-[(5-methyl-1,3,4-oxadiazol-2-yl)methyl]-4,5-dihydro-1,2,4-oxadiazol-5-one] | > 10000 | > 10000 | > 10000
